According to patent US6455593B1, “Method of dynamic retardation of cell cycle kinetics to potentiate cell damage” (priority 1995, dated 2002):

Key:
[1] = system: human promonocytic lymphoma cells (U937); assay: Microculture indicator system (MIS), MTT growth inhibition assay with bivariate serial dilutions; assay type: cell-based
Experimental: Microcultures of human promonocytic lymphoma cells (U937) (“the U937 cells”) originally obtained from the American Type Culture Collection (CRL 1593) and later grown by Dr. K. Zoon at the FDA in Bethesda, Md. were set up in a multiwell plate with serial two-fold dilutions of dThd in tissue culture growth medium (RPMI 1640 plus 10% Nurserum and antibiotics). The volume of medium per well was 100 μl and the cell number per well was about 1×10^5. The plate was incubated at 37° C. for 24 hr.
A dye, 3-[4,5-dimethylthiazol-2-yl]-2,5-diphenyl-tetrazolium bromide (MTT), was used as a chromogenic indicator of the metabolically active cell mass. Viable cells metabolize the dye and accumulate a reduced formazan product (blue color) which is solubilized for colorimetry. Mossman T, J. Immunol. Methods 5:55-63 (1983); Li L and Lau B H S, In Vitro Cell Dev. Biol. 29A:531-536 (1993). The MTT assay has been established as useful for measuring either growth inhibition or population killing. Plowman, supra. The MTT method is ideal for cells tested in suspension growth, and can also be used for some cells growing in monolayers. […] Alley, supra; Hofs, supra; Wilson J K et al., Br. J. Cancer 62:189-94 (1990); Plowman, supra.
Thirty μl of 0.5% MTT in phosphate buffered saline was added to each microculture well at the appropriate time. After incubation at 37° C. for 3 hr, 120 μl of an aqueous solution of 10 % SDS with 0.01 N HCl was added to release and dissolve formazan product. This was accomplished by overnight incubation of the plate at 37° C. After careful mixing of the microwell contents by placing the plates on an orbital shaker for 5 minutes the absorbencies were quantitated by spectrophotometry at 570 nm with a Ceres UV 900 HDI microwell plate reader (from Biotek Instruments Inc, Winooski, Vt. 05404-0998). Absorbance data was normalized to a blank well containing all reagents without cells and was collected semi-automatically.
Flat-bottom 96-well plates of tissue culture quality (Corning or Costar) were set up with two-fold serial dilutions of each agent to be tested, e.g., the RA and TCI, using a multichannel pipettor with adjustable volume, e.g., Costar or Rainin, to perform serial mixing. This set-up is diagrammed in FIG. 12. […] In each plate, a total of 59 wells then contained bivariate agent combinations, the bivariate serial dilutions.
Agents were serially diluted by serial mixing in two separate plates or series of wells, and then were combined prior to addition of a fixed volume and density of the U937 cells in a suspension calculated to deliver about 1×10^5 cells per well.
Cells were added after serial dilutions of the dThd had been dispensed. Cells were dispensed at about 10×10^4 cells per microwell to provide optimal sensitivity of detection of cell damage in subsequent calorimetric assays. […] The final volume of medium was 100 μl/well. The plates were further incubated at 37° C. for a total duration of 18-24 h. The dye MTT was used as a chromogenic indicator of the residual and metabolically active cell mass. (Described in Example 1).
In this MTT assay, normalized absorbance data was collected semi-automatically from each microculture well with a Ceres UV 900 HD1 plate reader, from Biotek Instruments Inc., Winooski, V T 05404-0998, stored in an EIA file under the Ceres 900 program, transferred in comma delimited format to a floppy diskette, and imported into a spread sheet program (Borland Quattro Pro) for data manipulations.

U937 cells [2] = assay: Flow cytometric cell cycle analysis (propidium iodide); assay type: cell-based, human
Experimental: Flow cytometric analyses were performed with a Coulter Epics System (purchased from Coulter Corp, Hialeah, Fla.). Cells were disrupted in buffer with 0.1% Triton-X 100 (or 0.6 % NP-40), so that the nuclei could be stained with 0.05% propidium iodide (PI). See Shapiro N M, Practical Flow Cytometry, Man R Liss, NY (1988); Nicoletti I et al., J Immunol Methods 139:271-9 (1991). Analyses of 10,000 nuclei were performed with graduated concentrations of dThd at serial time points. Histograms of PI fluorescent emissions at 675±10 nm were used to discriminate cell cycle fractions of the target population. The proportion of cells in each phase of the cell cycle is represented by stack bars above the X-axis as a fraction of those cells with intact DNA structure. The fraction of cells with depleted DNA in each sample is represented below the X-axis as a percentage of the total cell number. Cells with depleted DNA are presumed apoptotic. Crompton S T et. al. Biophys. Biochem. Res. Comm. 183:532-537 (1992). Each stack bar in FIG. 5 represents the cell cycle distribution of a population sample of >10,000 cells, analyzed for each indicated dThd concentration at indicated treatment times.
Flow cytometric analyses were performed as in Example 2. The results are shown in plot A of FIG. 5 from Example 2.
The U937 cells were exposed to a range of concentrations below the IC40 and sampled for flow cytometry at intervals of 8, 16, and 24 hours. Flow cytometric analysis was performed as described in Example 2.

p. falciparum W2 = assay: Parasite growth by 3H-hypoxanthine uptake in infected erythrocytes; assay type: cell-based; conditions: Plasmodium falciparum, W2, Erythrocyte; 24 hr after RBC infection, 3H-hypoxanthine uptake; read-out: inhibitory concentrations (IC50), strain W2
p. falciparum D6 = assay: as above; assay type: cell-based; conditions: Plasmodium falciparum, D6, Erythrocyte; 24 hr after RBC infection, 3H-hypoxanthine uptake; read-out: inhibitory concentrations (IC50), strain D6
[3] = system: Burkitt's lymphoma cell line Raji; assay: MIS MTT growth inhibition assay; assay type: cell-based, human; conditions: total 24 Hours
[4] = after oral ingestion; cited from earlier work
U937 cells [5] = assay: DNA gel electrophoresis for DNA fragmentation (apoptosis); assay type: cell-based, human
Experimental: Samples of the U937 cells were exposed to a series of concentrations of dThd for 24 hr. Their DNA was isolated by lysis of cell samples in TE buffer containing TRIS 10 mM, EDTA 10 mM, SDS 0.5% and proteinase K 200 μg/ml at […] for 2 h. The proteins were precipitated in a IM solution of NaCl and centrifuged at 2,500×g for 30 min at […] DNAse free RNase (25 μg/ml) was added to the supernatant and incubated for 30 min at 37° C. Spectrophotometric quantitation of the DNA in the supernatant was quantitated by absorbance spectrophotometry at 260 nm. Volumes adjusted to contain equal amounts of DNA were mixed with a loading buffer of 40% (w/v) sucrose, 0.1M EDTA pH 8.0, 0.5% (w/v) sodium lauryl sulphate and 0.05% (w/v) bromophenol blue. […] Separated bands of DNA were stained with ethidium bromide and photographed in UV light (Fotodyne Inc.). […] The lowest molecular weight (about 180 bp) was determined with a standard 123 bp ladder from Sigma Chemical Co. (Cat. #D5042). The result shown is a classical “DNA ladder,” characteristic of the fragmentation of DNA macromolecules in apoptosis. See Tomei, supra; Obeid, supra; Gold, supra.

[6] = Homo sapiens, U-937, 4 h, U937, HU […] 4 H, K252a 0, read-out: MTT % inhibition, HU only

## O=c1[nH]c(=O)n([C@H]2C[C@H](O)[C@@H](CO)O2)cc1Br [BrdU, bromodeoxyuridine]
[1]; U937
  RA concentration for STSP potentiation relative to concentration causing cell cycle arrest: at least one log lower
[1]; U937, BrdU 0.01 mM (c19) for 4 H, STSP for 18 H, total 22 H, STSP nM rows r7-r12: 200,100,60,26,12.6,6.25, r14 BrdU alone
  Growth inhibition (MTT), BrdU 0.01 mM (ninth dilution): 4%
[1]; U937, BrdU 0.01 mM (c21, last dilution) for 4 H, STSP for 18 H, total 22 H, STSP nM rows r7-r12: 200,100,60,26,12.6,6.25, r14 BrdU alone
  Growth inhibition (MTT), BrdU 0.01 mM (tenth, last dilution): 4%
[1]; U937, BrdU 0.02 mM for 4 H, STSP for 18 H, total 22 H, STSP nM rows r7-r12: 200,100,60,26,12.6,6.25, r13 BrdU alone
  Combined results ratio (CRR), BrdU 0.02 mM: 1.0
[1]; U937, BrdU 0.02 mM for 4 H, STSP for 18 H, total 22 H, STSP nM rows r7-r12: 200,100,60,26,12.6,6.25, r14 BrdU alone
  Growth inhibition (MTT), BrdU 0.02 mM: 5%
[1]; U937, BrdU 0.06 mM for 4 H, STSP for 18 H, total 22 H, STSP nM rows r7-r12: 200,100,60,26,12.6,6.25, r13 BrdU alone
  Combined results ratio (CRR), BrdU 0.06 mM: 1.0
[1]; U937, BrdU 0.06 mM for 4 H, STSP for 18 H, total 22 H, STSP nM rows r7-r12: 200,100,60,26,12.6,6.25, r14 BrdU alone
  Growth inhibition (MTT), BrdU 0.06 mM: 10%
[1]; U937, BrdU 0.09 mM for 4 H, STSP for 18 H, total 22 H, STSP nM rows r7-r12: 200,100,60,26,12.6,6.25, r13 BrdU alone
  Combined results ratio (CRR), BrdU 0.09 mM: 1.0
[1]; U937, BrdU 0.09 mM for 4 H, STSP for 18 H, total 22 H, STSP nM rows r7-r12: 200,100,60,26,12.6,6.25, r14 BrdU alone
  Growth inhibition (MTT), BrdU 0.09 mM: 21%
[1]; U937, BrdU 3.00 mM for 4 H, STSP for 18 H, total 22 H, STSP nM rows r7-r12: 200,100,60,26,12.6,6.25, r13 BrdU alone
  Combined results ratio (CRR), BrdU 3.00 mM: 1.0
[1]; U937, BrdU 3.00 mM for 4 H, STSP for 18 H, total 22 H, STSP nM rows r7-r12: 200,100,60,26,12.6,6.25, r14 BrdU alone
  Growth inhibition (MTT), BrdU 3.00 mM: 61%
[1]; U937, BrdU […] for 4 H, STSP for 18 H, total 22 H, STSP nM rows r7-r12: 200,100,60,26,12.6,6.25, r13 BrdU alone
  Combined results ratio (CRR), BrdU […]: 1.0
U937 cells [2]; bivariate flow cytometry, PI and fluorescein-labelled antibody to BrdU
  Effect on S phase: produced a slowing of S phase similar to that caused by dThd

## NC(=O)NO [HU, hydroxyurea]
[1]; Homo sapiens, U-937, 4 h, U937, HU 0.01 mM 4 H, K252a 0, read-out: MTT % inhibition, HU only
  inhibition at 10 µM: -1%
[1]; Homo sapiens, U-937, 4 h, U937, HU 0.02 mM 4 H, K252a 0, read-out: MTT % inhibition, HU only
  inhibition at 20 µM: -1%
[1]; Homo sapiens, U-937, 4 h, U937, HU 0.03 mM 4 H, K252a 0, read-out: MTT % inhibition, HU only
  inhibition at 30 µM: 1%
[1]; Homo sapiens, U-937, 4 h, U937, HU 0.06 mM 4 H, K252a 0, read-out: MTT % inhibition, HU only
  inhibition at 60 µM: 9%
[1]; Homo sapiens, U-937, 4 h, U937, HU 0.50 mM 4 H, K252a 0, read-out: MTT % inhibition, HU only
  inhibition at 500 µM: 48%
[1]; Homo sapiens, U-937, 4 h, U937, HU 1.00 mM 4 H, K252a 0, read-out: MTT % inhibition, HU only
  inhibition at 1000 µM: 52%
[1]; Homo sapiens, U-937, 4 h, U937, HU 2.00 mM 4 H, K252a 0, read-out: MTT % inhibition, HU only
  inhibition at 2000 µM: 59%
[1]; [6]
  inhibition at 130 µM: 20%
  inhibition at 250 µM: 36%
[1]; MTT tests, about 0.05 to 3 mM, preliminary results
  Enhancement of DEET-induced apoptosis as prospective RA: no significant enhancement of the DEET-induced apoptosis
[1]; U937, HU 0.00 mM (so in the source) 4 H, K252a 0
  MTT % inhibition, HU only: −2%
U937 cells [2]; 0.125-1 mM HU, up to 16 hr, U937
  Cells that became DNA depleted: no more than 20%
U937 cells [2]; HU>1 mM (2 mM at 24 hr), U937
  Cells with depleted DNA: a major increase in cells with depleted DNA became evident
p. falciparum W2
  IC50: 219 µM
p. falciparum D6
  IC50: 175 µM
[3]; HU only 0.00 mM
  Growth Inhibition: −3%
[3]; HU only 0.01 mM
  Growth Inhibition: −0%
[3]; HU only 0.02 mM
  Growth Inhibition: −7%
[3]; HU only 0.03 mM
  Growth Inhibition: −7%
[3]; HU only 0.05 mM
  Growth Inhibition: −7%
[3]; HU only 0.50 mM
  Growth Inhibition: 0%
[3]; HU only 1.00 mM
  Growth Inhibition: 0%
[3]; HU only 2.00 mM
  Growth Inhibition: 17%
[4]
  Time of blood level peak: 2 to 4 h

## CCCCCCCCCCCCCC(=O)O[C@@H]1[C@@H](C)[C@@]2(O)[C@@H](C=C(CO)C[C@]3(O)C(=O)C(C)=C[C@@H]23)[C@H]2C(C)(C)[C@]12OC(C)=O [TPA, 12-0-tetradecanoyl-phorbol-13-acetate]
U937 cells [5]; 10 nM TPA 48 hours differentiation, then dThd […], STSP 25 nM 7 hours
  Effect on dThd potentiation of STSP DNA fragmentation: significantly reduced dThd potentiation of DNA fragmentation during STSP treatment

## Nc1ccn([C@H]2C[C@H](O)[C@@H](CO)O2)c(=O)n1 [dCyt, deoxycytidine]
U937 cells [5]; dCyt added to U937 cultures treated with dThd and STSP
  Effect on DNA fragmentation by dThd and STSP: decreased DNA fragmentation

## bleomycin
[1]; MTT #523, total 20 Hours, bleomycin 16 Hours, no STSP, bleomycin mU by row: r9 160, r10 80, r11 40, r12 20, r13 10, r14 5
  Combined results ratio, bleomycin only: 1.0
